In patent EP4682141A1, “TRICYCLIC COMPOUND” (ONO Pharmaceutical Co., Ltd., priority 2023, dated 2024):
Values belong to the compound of their own block, whether it stands above or below them.

How the values were obtained:
EP1 = molecular target: T1, EP1 (Homo sapiens, UniProt P34995); assay: agonist activity on human EP1 receptor (intracellular calcium concentration, EP1-CHO cells); assay type: cell-based
T1 construct: expressed in transfected cells; host or cells: CHO (EP1-CHO)
T1 sequence (P34995 1-402): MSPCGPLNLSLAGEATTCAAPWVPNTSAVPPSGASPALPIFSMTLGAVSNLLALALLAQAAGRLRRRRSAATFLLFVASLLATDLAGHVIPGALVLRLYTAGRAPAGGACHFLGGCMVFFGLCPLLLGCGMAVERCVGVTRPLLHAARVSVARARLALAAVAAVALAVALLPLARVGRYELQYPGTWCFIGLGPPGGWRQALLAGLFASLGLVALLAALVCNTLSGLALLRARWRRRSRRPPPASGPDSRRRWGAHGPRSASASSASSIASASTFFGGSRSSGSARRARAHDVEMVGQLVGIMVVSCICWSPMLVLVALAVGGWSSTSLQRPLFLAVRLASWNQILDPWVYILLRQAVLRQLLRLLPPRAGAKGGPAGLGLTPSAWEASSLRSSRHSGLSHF
Experimental: Using CHO cells (EP1-CHO, EP2-CHO, EP3-Chem1, EP4-CHO and IP-CHO) on which various human prostanoid receptors were forcibly expressed, the agonist activity of the test compound on the various prostanoid receptors was examined using the intracellular calcium concentration for EP1 and EP3, and the intracellular cyclic AMP (hereinafter, abbreviated as cAMP) production amount for EP2, EP4 and IP as indices.
The test compound and control substances (PGE2 and iloprost) were dissolved in dimethyl sulfoxide (DMSO) to prepare a 10 mmol/L solution. The prepared 10 mmol/L solution was thawed at the time of use, serially diluted using DMSO, and diluted with a buffer solution 1 for measurement (Hank's balanced salt solution (Thermofischer scientific) containing 1 w/v% human serum albumin (Sigma), 2 µmol/L indomethacin (Sigma), 2.5 mmol/L probenecid, and 10 mmol/L HEPES-NaOH (pH7.4)) or a buffer solution 2 for measurement (D-PBS (Nacalai Tesque) containing 0.1 w/v% human serum albumin, 2 µmol/L diclofenac (Sigma), and 1 mmol/L 3-isobutyl-1-methylxanthine (Sigma)) to perform experiments.
The intracellular calcium concentration was measured using Calcium 6 Assay Kit (Molecular Devices). On the day before the measurement, EP1-CHO and EP3-Chem 1 were obtained by thawing the frozen cells, suspended using Ham's F-12 medium (Thermofischer scientific) containing inactivated (56°C, 30 min) 9.8 vol% FBS (Thermofischer scientific) and penicillin-streptomycin (Nacalai Tesque), seeded into a 96 well UV plate to 1.0×10^5 cells per well, and static cultured at 37°C in the presence of 5%CO2. On the day of the measurement, the medium was removed, followed by addition of 120 µL of the Calcium indication solution dissolved in the buffer solution 1 for measurement and incubation at room temperature under light-shielding for about 1 hour. After 1 hour incubation, the 96 well UV plates were set in a fluorescence spectrophotometer (FDSS-7000, Hamamatsu Photonics) to measure the intracellular calcium concentration. Thirty microliters of the buffer solution 1 for measurement containing various concentrations of agonists were added, and the mixture was reacted. The intracellular calcium concentration was measured by irradiating the cells with 480 nm excitation light and measuring the fluorescence intensity at 540 nm.

[1] = system: rat renal ischemia reperfusion (IR) model; assay: in vivo drug efficacy in rat renal ischemia reperfusion (IR) model; design: species or system Crl : CD (SD) rats
Experimental: The effect of the present compound on renal IR damage was evaluated using male rats.
Male Crl : CD (SD) rats aged 3 or 4 weeks were purchased from Charles River Laboratories Japan, and subjected to experiments. Animals were fed ad libitum with FR-2 (Funabashi Farm) at the time of arrival and with solid feed CE-2 (CLEA Japan) for one week before single kidney removal, and watered ad libitum.
After acclimation breeding, the right kidney was removed about 7 days before renal IR treatment. Specifically, the rats were allowed to inhale isoflurane (Mylan) for anesthesia, and administered buprenorphine (Otsuka Pharmaceutical) as an analgesic at 0.01 mg/kg. The right back was incised, the right kidney was removed, and then the incision was sutured.
Renal IR treatment was performed about 7 days after single kidney removal. Specifically, rats were anesthetized by intraperitoneal administration of sodium pentobarbital (Tokyo Chemical Industry) at a dose of 50 mg/kg, and administered buprenorphine as an analgesic at 0.01 mg/kg. The left abdomen was incised, and the renal artery and vein was sandwiched with a clamp (Natsume Seisakusho) to cause ischemia for 35 minutes. During ischemia, the rats were allowed to lie on a heat-retaining plate set at 38°C, and after 35 minutes, the clamp was removed for reperfusion. After visually confirming that blood flow to the kidney was recovered, the incision was sutured. The sham group was a sham-operated group in which neither ischemia nor reperfusion treatment was performed.
Animals were distributed on the day before renal IR treatment such that differences in the mean of the body weight in each group were not biased, and assigned animal numbers.
The compound of Example 7 (test substance) and physiological saline (Otsuka Pharmaceutical) as a vehicle were subcutaneously administered at 5 mL/kg using an injection needle 5 minutes before renal IR treatment. Saline was administered to the sham group in the same test. The administration dose is described in Table 16.
Specifically, the rats were allowed to inhale isoflurane for anesthesia on the day before renal IR treatment, and administered buprenorphine as an analgesic at 0.01 mg/kg. […] The incision was bonded with Dermabond Advanced (Johnson & Johnson). A pump containing a vehicle was also embedded in the sham group in the same test. The administration dose is described in Table 16.
After renal IR treatment, blood was collected through the tail vein on Day1, Day2, and Day3 to obtain serum. In addition, after renal IR treatment, rats were euthanized by exsanguination through the abdominal aorta under isoflurane anesthesia on Day3.
The respective concentrations of serum creatinine (sCre) and blood urea nitrogen (BUN) were measured using an automatic analyzer 7180 (Hitachi High-Tech).

[2] = IR 1.0 µg/kg/min, subcutaneous osmotic pump, day 1
[3] = IR 1.0 µg/kg/min, subcutaneous osmotic pump, day 2
[4] = IR 3.0 µg/kg/min, subcutaneous osmotic pump, day 1
[5] = IR 3.0 µg/kg/min, subcutaneous osmotic pump, day 2
[6] = IR 0.1 mg/kg subcutaneous 5 minutes before renal IR treatment, day 1
[7] = IR 0.1 mg/kg subcutaneous 5 minutes before renal IR treatment, day 2
[8] = IR 0.1 mg/kg subcutaneous 5 minutes before renal IR treatment, day 3
[9] = IR 1.0 mg/kg subcutaneous 5 minutes before renal IR treatment, day 1
[10] = IR 1.0 mg/kg subcutaneous 5 minutes before renal IR treatment, day 2
[11] = IR 1.0 mg/kg subcutaneous 5 minutes before renal IR treatment, day 3

Structure (SMILES): C[C@@H](c1ccc(F)cc1F)[C@H](O)/C=C/[C@@H]1[C@H]2CCc3ccc(C(=O)O)c(F)c3O[C@H]2C[C@H]1O [Example 1, (1R,2R,3aS,10aR)-1-[(1E,3R,4S)-4-(2,4-difluorophenyl)-3-hydroxy-1-penten-1-yl]-5-fluoro-2-hydroxy-2,3,3a,9,10,10a-hexahydro-1H-benzo[b]cyclopenta[f]oxepine-6-carboxylic acid]
EC50 (EP1): 3.5 µM

Structure (SMILES): CC(c1ccccc1F)C(O)/C=C/[C@@H]1[C@H]2CCc3ccc(C(=O)O)c(F)c3O[C@H]2C[C@H]1O (stereo partly drawn) [Example 3, (1R,2R,3aS,10aR)-5-fluoro-1-[(1E)-4-(2-fluorophenyl)-3-hydroxy-1-penten-1-yl]-2-hydroxy-2,3,3a,9,10,10a-hexahydro-1H-benzo[b]cyclopenta[f]oxepine-6-carboxylic acid]
EC50 (EP1): 7.3 µM

Structure (SMILES): Cc1ccccc1C1(C(O)/C=C/[C@@H]2[C@H]3CCc4ccc(C(=O)O)c(F)c4O[C@H]3C[C@H]2O)CC1 (stereo partly drawn) [Example 5-2, (1R,2R,3aS,10aR)-5-fluoro-2-hydroxy-1-{(1E,3ξ)-3-hydroxy-3-[1-(2-methylphenyl)cyclopropyl]-1-propen-1-yl}-2,3,3a,9,10,10a-hexahydro-1H-benzo[b]cyclopenta[f]oxepine-6-carboxylic acid]
blood urea nitrogen (BUN) concentration mean [1, 2]: 75.5
serum creatinine (sCre) concentration mean [1, 2]: 0.91
blood urea nitrogen (BUN) concentration mean [1, 3]: 65.3
serum creatinine (sCre) concentration mean [1, 3]: 0.62
blood urea nitrogen (BUN) concentration mean [1, 4]: 63.4
serum creatinine (sCre) concentration mean [1, 4]: 0.79
blood urea nitrogen (BUN) concentration mean [1, 5]: 54.9
serum creatinine (sCre) concentration mean [1, 5]: 0.50

Structure (SMILES): O=C(O)c1ccc2c(c1)O[C@H]1C[C@@H](O)[C@H](/C=C/[C@@H](O)C3(c4ccccc4)CC3)[C@H]1CC2 [Example 7, (1R,2R,3aS,10aR)-2-hydroxy-1-[(1E,3R)-3-hydroxy-3-(1-phenylcyclopropyl)-1-propen-1-yl]-2,3,3a,9,10,10a-hexahydro-1H-benzo[b]cyclopenta[f]oxepine-6-carboxylic acid]
blood urea nitrogen (BUN) concentration mean [1, 6]: 74.6
serum creatinine (sCre) concentration mean [1, 6]: 1.08
blood urea nitrogen (BUN) concentration mean [1, 7]: 58.7
serum creatinine (sCre) concentration mean [1, 7]: 0.72
blood urea nitrogen (BUN) concentration mean [1, 8]: 46.3
serum creatinine (sCre) concentration mean [1, 8]: 0.52
blood urea nitrogen (BUN) concentration mean [1, 9]: 73.6
serum creatinine (sCre) concentration mean [1, 9]: 0.99
blood urea nitrogen (BUN) concentration mean [1, 10]: 53.1
serum creatinine (sCre) concentration mean [1, 10]: 0.62
blood urea nitrogen (BUN) concentration mean [1, 11]: 39.7
serum creatinine (sCre) concentration mean [1, 11]: 0.44

Structure (SMILES): O=C(O)c1ccc2c(c1)O[C@H]1C[C@@H](O)[C@H](/C=C/C(O)C3(c4ccc(F)cc4)CCC3)[C@H]1CC2 (stereo partly drawn) [Example 7-13, (1R,2R,3aS,10aR)-1-{(1E,3ξ)-3-[1-(4-fluorophenyl)cyclobutyl]-3-hydroxy-1-propen-1-yl}-2-hydroxy-2,3,3a,9,10,10a-hexahydro-1H-benzo[b]cyclopenta[f]oxepine-6-carboxylic acid]
EC50 (EP1): 6.3 µM

Structure (SMILES): O=C(O)c1ccc2c(c1Cl)O[C@H]1C[C@@H](O)[C@H](/C=C/C(O)C(F)(F)c3c(F)cccc3F)[C@H]1CC2 (stereo partly drawn) [Example 8, (1R,2R,3aS,10aR)-5-chloro-1-[(1E,3ξ)-4-(2,6-difluorophenyl)-4,4-difluoro-3-hydroxy-1-buten-1-yl]-2-hydroxy-2,3,3a,9,10,10a-hexahydro-1H-benzo[b]cyclopenta[f]oxepine-6-carboxylic acid]
EC50 (EP1): 2.7 µM

More lines, now with the values ahead:

EC50 (EP1): > 10 µM
Structure (SMILES): Cc1c(C(=O)O)ccc2c1O[C@H]1C[C@@H](O)[C@H](/C=C/CC(C)(O)CCC(C)C)[C@H]1CC2 (stereo partly drawn) [Example 13, (1R,2R,3aS,10aR)-2-hydroxy-1-[(1E,4ξ)-4-hydroxy-4,7-dimethyl-1-octen-1-yl]-5-methyl-2,3,3a,9,10,10a-hexahydro-1H-benzo[b]cyclopenta[f]oxepine-6-carboxylic acid]

EC50 (EP1): > 10 µM
Structure (SMILES): O=C(O)c1ccc2c(c1)O[C@H]1CC[C@H](/C=C/C(O)C3(c4ccccc4F)CCC3)[C@H]1CC2 (stereo partly drawn) [Example 26-9, (1R,3aS,10aR)-1-{(1E,3ξ)-3-[1-(2-fluorophenyl)cyclobutyl]-3-hydroxy-1-propen-1-yl}-2,3,3a,9,10,10a-hexahydro-1H-benzo[b]cyclopenta[f]oxepine-6-carboxylic acid]

EC50 (EP1): > 10 µM
Structure (SMILES): O=C(O)c1ccc2c(c1Cl)O[C@H]1CC[C@H](/C=C/C(O)C3(c4ccccc4F)CCC3)[C@H]1CC2 (stereo partly drawn) [Example 26-17, (1R,3aS,10aR)-5-chloro-1-{(1E,3ξ)-3-[1-(2-fluorophenyl)cyclobutyl]-3-hydroxy-1-propen-1-yl}-2,3,3a,9,10,10a-hexahydro-1H-benzo[b]cyclopenta[f]oxepine-6-carboxylic acid]

EC50 (EP1): > 10 µM
Structure (SMILES): C=C(CCOC)C(O)/C=C/[C@H]1CC[C@@H]2Oc3c(ccc(C(=O)O)c3Cl)CC[C@@H]21 (stereo partly drawn) [Example 26-19, (1R,3aS,10aR)-5-chloro-1-[(1E,3ξ)-3-hydroxy-6-methoxy-4-methylene-1-hexen-1-yl]-2,3,3a,9,10,10a-hexahydro-1H-benzo[b]cyclopenta[f]oxepine-6-carboxylic acid]

EC50 (EP1): > 10 µM
Structure (SMILES): CCCC[C@H](CC)C(O)/C=C/[C@H]1CC[C@@H]2Oc3c(ccc(C(=O)O)c3Cl)CC[C@@H]21 (stereo partly drawn) [Example 26-20, (1R,3aS,10aR)-5-chloro-1-[(1E,3ξ,4S)-4-ethyl-3-hydroxy-1-octen-1-yl]-2,3,3a,9,10,10a-hexahydro-1H-benzo[b]cyclopenta[f]oxepine-6-carboxylic acid]

EC50 (EP1): > 10 µM
Structure (SMILES): O=C(O)c1ccc2c(c1Cl)O[C@H]1CC[C@H](/C=C/C(O)C3(c4ccccc4)COC3)[C@H]1CC2 (stereo partly drawn) [Example 26-21, (1R,3aS,10aR)-5-chloro-1-[(1E,3ξ)-3-hydroxy-3-(3-phenyl-3-oxetanyl)-1-propen-1-yl]-2,3,3a,9,10,10a-hexahydro-1H-benzo[b]cyclopenta[f]oxepine-6-carboxylic acid]
